We go through eight compounds from US20170081338A1, “SUBSTITUTED HETEROARYL COMPOUNDS AND METHODS OF USE” (Sunshine Lake Pharma Co., Ltd., priority 2015, published 2017).

For one series, the target named is T1, Aurora-A (h) (Homo sapiens, UniProt O14965).
T1 construct: purchased Millipore UK Ltd (contract assay service)
T1 sequence (O14965 1-403): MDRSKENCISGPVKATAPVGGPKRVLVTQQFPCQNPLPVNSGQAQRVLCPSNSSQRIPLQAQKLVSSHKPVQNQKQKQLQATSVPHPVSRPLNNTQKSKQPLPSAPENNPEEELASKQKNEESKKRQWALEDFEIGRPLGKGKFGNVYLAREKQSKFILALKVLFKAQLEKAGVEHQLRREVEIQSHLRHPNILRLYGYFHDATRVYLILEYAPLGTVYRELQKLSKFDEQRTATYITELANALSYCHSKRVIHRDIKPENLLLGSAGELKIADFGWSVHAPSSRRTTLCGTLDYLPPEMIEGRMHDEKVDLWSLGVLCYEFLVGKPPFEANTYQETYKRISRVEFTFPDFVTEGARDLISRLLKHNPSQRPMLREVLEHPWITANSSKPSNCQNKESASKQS
Description: Aurora-A (h) kinase assay. Format: biochemical. The method, then: The above assay procedure can be used to determine the IC50 for inhibition and/or the inhibition constant, Ki. The IC50 is defined as the concentration of compound required to reduce the enzyme activity by 50% under the condition of the assay. The IC50 value is estimated by preparing a 10 point curve using a 1/2 log dilution series (for example, a typical curve may be prepared using the following compound concentrations: 3 μM, 1 μM, 0.3 μM, 0.1 μM, 0.03 μM, 0.01 μM, 0.003 μM, 0.001 μM, 0.0003 μM and 0 μM).
Aurora-A (h) is incubated with 8 mM MOPS pH 7.0, 0.2 mM EDTA, 200 μM LRRASLG (Kemptide), 10 mM MgAcetate and [γ-^33P-ATP] (specific activity approx. 500 cpm/pmol, concentration as required). The reaction is initiated by the addition of the MgATP mix. After incubation for 40 minutes at room temperature, the reaction is stopped by the addition of 3% phosphoric acid solution. 10 μL of the reaction is then spotted onto a P30 filtermat and washed three times for 5 minutes in 75 mM phosphoric acid and once in methanol prior to drying and scintillation counting.
The kinase assays described herein were performed at Millipore UK Ltd, Dundee Technology Park, Dundee DD2 1SW, UK.

The nature of series [1]: Compound stability in rat liver microsomes. Format: in vitro ADME. The settings on record: pH 7.4; for half-life at 5 μM: rat liver microsomes 0.5 mg protein/mL, compound 5 μM, NADPH, 37° C., read-out: Rat T1/2; for CLint scaled at 5 μM: rat liver microsomes, in vivo CLint extrapolated. The method, then: (§1) Human or rat liver microsomes incubations were conducted in duplicate in polypropylene tubes. The typical incubation mixtures consisted of human or rat liver microsomes (0.5 mg protein/mL), compounds of interest (5 μM) and NADPH (1.0 mM) in a total volume of 200 μL potassium phosphate buffer (PBS, 100 mM, pH 7.4). Compounds were dissolved in DMSO and diluted with PBS such that the final concentration of DMSO was 0.05%. The enzymatic reactions were commenced with the addition of protein after a 3-min preincubation and incubated in a water bath open to the air at 37° C. Reactions were terminated at various time points (0, 5, 10, 15, 30, 60 min) by adding equal volume of ice-cold acetonitrile. The samples were stored at −80° C. until LC/MS/MS assays.
(§2) The concentrations of compounds in the incubation mixtures of human or rat liver microsomes were determined by a LC/MS/MS method. The ranges of the linearity in the concentration range were determined for each tested compounds.
(§3) A parallel incubation was performed using denatured microsomes as the negative control, and reactions were terminated at various time points (0, 15, 60 min) after incubation at 37° C.
(§4) Dextromethorphan (70 μM) was selected as the positive control, and reactions were terminated at various time points (0, 5, 10, 15, 30, 60 min) after incubation at 37° C. Both positive and negative control samples were included in each assay to ensure the integrity of the microsomal incubation system.
(§5) The concentrations of compounds in human or rat liver microsome incubations were plotted as a percentage of the relevant zero time point control for each reaction. The in vivo CLint were extrapolated (ref.: Naritomi, Y.; Terashita, S.; Kimura, S.; Suzuki, A.; Kagayama, A.; and Sugiyama, Y.; Prediction of human hepatic clearance from in vivo animal experiments and in vitro metabolic studies with liver microsomes from animals and humans. Drug Metab. Dispos., 2001, 29: 1316-1324).

Series [2] is described as follows: Pharmacokinetics after intravenous and oral administration in rats. Format: in vivo. The settings on record: for Clearance (CL) after iv dosing / AUC(0-t) / half-life / Vd: dose 1 mg/kg, iv dosing; for F: oral bioavailability; for AUC(0-t) / half-life / Vd: rat, plasma; for Vd: read-out: Vss. The method, then: The LC/MS/MS system used in the analysis consists of an Agilent 1200 Series vacuum degasser, binary pump, well-plate autosampler, thermostatted column compartment, the Agilent G6430 Triple Quadrupole Mass Spectrometer with an electrosprayionization (ESI) source. Quantitative analysis was carried out using MRM mode. The parameters for MRM transitions are in the Table A.
An Agilent XDB-C18, 2.1×30 mm, 3.5 μM column was used for the analysis. 5 μL of the samples were injected. Analysis condition: The mobile phase was 0.1% formic acid in water (A) and 0.1% formic acid in methanol (B). The flow rate was 0.4 mL/min. And the gradient of Mobile phase was in the Table B.
Alternatively, an Agilent 6330 series LC/MS/MS spectrometer equipped with G1312A binary pumps, a G1367A autosampler and a G1314C UV detector were used in the analysis. An ESI source was used on the LC/MS/MS spectrometer. The analysis was done in positive ion mode as appropriate and the MRM transition for each analyte was optimized using standard solution. A Capcell MP-C18 100×4.6 mm I.D., […] column (Phenomenex, Torrance, Calif., USA) was used during the analysis. The mobile phase was 5 mM ammonia acetate, 0.1% MeOH in water (A): 5 mM ammonia acetate, 0.1% MeOH in acetonitrile (B) (70/30, v/v). The flow rate was 0.6 mL/min. Column was maintained at ambient temperature. 20 μL of the samples were injected.
The compounds disclosed herein are assessed in pharmacokinetic studies in mice, rats, dogs or monkeys. The compounds are administered as a water solution, 2% HPMC+1% TWEEN®80 in water solution, 5% DMSO+5% solutol in saline, 4% MC suspension or capsule. For the intravenous administration, the animals are generally given at 0.5, 1 or 2 mg/kg dose. For the oral (p.o.) dosing, mice and rats are generally given 0.5, 1, 5 or 10 mg/kg dose, and dogs and monkeys are generally given 10 mg/kg dose. The blood samples (0.3 mL) are drawn at 0.25, 0.5, 1.0, 2.0, 3.0, 4.0, 6.0, 8.0, 12 and 24 h time points or 0.083, 0.25, 0.5, 1.0, 2.0, 4.0, 6.0, 8.0 and 24 h time points and centrifuged at 3,000 or 4000 rpm for 2 to 10 min. The plasma solutions are collected, and stored at −20° C. or −70° C. until analyzed by LC/MS/MS as described above.

Series [3] can be described thus: Compound stability in human liver microsomes. Format: in vitro ADME. The settings on record: pH 7.4; for half-life at 5 μM: human liver microsomes 0.5 mg protein/mL, compound 5 μM, NADPH, 37° C., read-out: Human T1/2; for CLint scaled at 5 μM: human liver microsomes, in vivo CLint extrapolated. The method, then: as §1, §2, §3, §4, §5

By IC50 is commonly meant the point on the concentration scale where inhibition reaches its midpoint. A higher IC50 goes with weaker potency. `Cn1cc(Nc2ncc(Cl)c(N[C@H]3COC4C3OC[C@H]4NS(=O)(=O)CC(C)(C)C)n2)cn1` (stereo partly drawn) [Ex. 7, N-((3R,6S)-6-((5-chloro-2-((1-methyl-1H-pyrazol-4-yl)amino)pyrimidin-4-yl)amino)hexahydrofuro[3,2-b]furan-3-yl)-2,2-dimethylpropane-1-sulfonamide]: 1180 nM corresponded to half-maximal inhibition against Aurora-A (h) (IC50).

`CC(C)CS(=O)(=O)N[C@H]1COC2C1OC[C@@H]2Nc1nc(Nc2cnn(C)c2)ncc1Cl` (stereo partly drawn) [Ex. 28, N-((3S,6S)-6-((5-chloro-2-((1-methyl-1H-pyrazol-4-yl)amino)pyrimidin-4-yl)amino)hexahydrofuro[3,2-b]furan-3-yl)-2-methylpropane-1-sulfonamide] gave an IC50 on Aurora-A (h) of 575 nM.

Usually CLint scaled stands for a measure of how fast metabolising enzymes remove a compound, apart from limits set by blood flow. In general, AUC(0-t) refers to exposure summed from dosing to a finite time, without extrapolation to infinity. A lower AUC(0-t) goes with low exposure. Turning to `CC(CF)CS(=O)(=O)N[C@H]1COC2C1OC[C@H]2Nc1nc(Nc2cnn(C)c2)ncc1Cl` (stereo partly drawn) [Ex. 37, N-((3S,6R)-6-((5-chloro-2-((1-methyl-1H-pyrazol-4-yl)amino)pyrimidin-4-yl)amino)hexahydrofuro[3,2-b]furan-3-yl)-3-fluoro-2-methylpropane-1-sulfonamide], in series [1], the half-life at 5 μM amounted to 34.9 min and the CLint scaled at 5 μM is 71.1 mL/min/kg. For the same compound, in series [2], the “Clearance (CL) after iv dosing” value turned out to be 34.2 mL/min/kg, the F is on record as 69.5%, the AUC(0-t) came out at 491 ng·h/mL and the half-life is 32.4 min. The Vd in series [2] was 0.86 L/kg. Further, in series [3], the half-life at 5 μM was 26.6 min and the CLint scaled at 5 μM was 65.5 mL/min/kg.

On to `Cn1cc(Nc2ncc(Cl)c(N[C@@H]3COC4C3OC[C@@H]4NS(=O)(=O)CC(C)(F)F)n2)cn1` (stereo partly drawn) [Ex. 38, N-((3S,6R)-6-((5-chloro-2-((1-methyl-1H-pyrazol-4-yl)amino)pyrimidin-4-yl)amino)hexahydrofuro[3,2-b]furan-3-yl)-2,2-difluoropropane-1-sulfonamide], for which, in series [1], the half-life at 5 μM was determined as 47.7 min and the CLint scaled at 5 μM was 52.1 mL/min/kg. In series [2], the “Clearance (CL) after iv dosing” value worked out at 17 mL/min/kg, the F is on record as 106.6%, the AUC(0-t) is 982 ng·h/mL and the half-life is 32.4 min. In addition, the Vd in series [2] is 0.69 L/kg. In series [3], the half-life at 5 μM was determined as 65.6 min and the CLint scaled at 5 μM is 26.5 mL/min/kg.

On to `CC(CS(=O)(=O)N[C@H]1COC2C1OC[C@H]2Nc1nc(Nc2cnn(C)c2)ncc1Cl)C(F)(F)F` (stereo partly drawn) [Ex. 40, N-((3S,6R)-6-((5-chloro-2-((1-methyl-1H-pyrazol-4-yl)amino)pyrimidin-4-yl)amino)hexahydrofuro[3,2-b]furan-3-yl)-3,33-trifluoro-2-methylpropane-1-sulfonamide], for which, in series [1], the half-life at 5 μM was 19.7 min and the CLint scaled at 5 μM is 126 mL/min/kg. Also, in series [2], the “Clearance (CL) after iv dosing” value came out at 30.3 mL/min/kg, the F is given as 77.3%, the AUC(0-t) is 533 ng·h/mL and the half-life was 31.2 min. For the same compound, the Vd in series [2] worked out at 1.22 L/kg. Moreover, in series [3], the half-life at 5 μM worked out at 25.2 min and the CLint scaled at 5 μM is 69 mL/min/kg.

In the case of `Cn1cc(Nc2ncc(Cl)c(N[C@@H]3COC4C3OC[C@@H]4NS(=O)(=O)CC(C)(C)O)n2)cn1` (stereo partly drawn) [Ex. 41, N-((3S,6R)-6-((5-chloro-2-((1-methyl-1H-pyrazol-4-yl)amino)pyrimidin-4-yl)amino)hexahydrofuro[3,2-b]furan-3-yl)-2-hydroxy-2-methylpropane-1-sulfonamide], in series [1], the half-life at 5 μM is 78.7 min and the CLint scaled at 5 μM is 31.5 mL/min/kg. Moreover, in series [2], the “Clearance (CL) after iv dosing” value came to 57.3 mL/min/kg, the F was 37.0%, the AUC(0-t) worked out at 290 ng·h/mL and the half-life was 49.2 min. In series [2], the Vd was determined as 1.64 L/kg. Also, in series [3], the half-life at 5 μM came out at 102 min and the CLint scaled at 5 μM is 17 mL/min/kg.

Consider `CC(CS(=O)(=O)N[C@H]1COC2C1OC[C@H]2Nc1nc(Nc2cnn(C)c2)ncc1Cl)C(F)F` (stereo partly drawn) [Ex. 42, N-((3S,6R)-6-((5-chloro-2-((1-methyl-1H-pyrazol-4-yl)amino)pyrimidin-4-yl)amino)hexahydrofuro[3,2-b]furan-3-yl)-3,3-difluoro-2-methylpropane-1-sulfonamide], for which, in series [1], the half-life at 5 μM stood at 29.6 min and the CLint scaled at 5 μM is 83.9 mL/min/kg. Further, in series [2], the “Clearance (CL) after iv dosing” value stood at 32.5 mL/min/kg, the F was determined as 33.1%, the AUC(0-t) was 517 ng·h/mL and the half-life was 46.2 min. The Vd in series [2] amounted to 1.37 L/kg. In series [3], the half-life at 5 μM was found to be 29.3 min and the CLint scaled at 5 μM was 59.3 mL/min/kg.

For the compound `CC(C)=CS(=O)(=O)N[C@H]1COC2C1OC[C@H]2Nc1nc(Nc2cnn(C)c2)ncc1Cl` (stereo partly drawn) [Ex. 43, N-((3S,6R)-6-((5-chloro-2-((1-methyl-1H-pyrazol-4-yl)amino)pyrimidin-4-yl)amino)hexahydrofuro[3,2-b]furan-3-yl)-2-methylprop-1-ene-1-sulfonamide], in series [1], the half-life at 5 μM was 25.7 min and the CLint scaled at 5 μM was 96.5 mL/min/kg. In series [2], the “Clearance (CL) after iv dosing” value amounted to 35 mL/min/kg, the F came out at 57.1%, the AUC(0-t) came to 479 ng·h/mL and the half-life is 47.4 min. Also, in series [2], the Vd is 1.75 L/kg. In series [3], the half-life at 5 μM amounted to 22.9 min and the CLint scaled at 5 μM was 76 mL/min/kg.
